Experimental data published in ChEMBL document CHEMBL1152673, “Crystal structure of 3-isopropylmalate dehydrogenase in complex with NAD(+) and a designed inhibitor” (Bioorg Med Chem, 2009).

Biological target: 3-isopropylmalate dehydrogenase (Thermus thermophilus, UniProt Q5SIY4)
Assay: Inhibition of Thermus thermophilus HB8 IPMDH assessed as formation of NADH by Lineweaver-Burke plot analysis

Sequence of 3-isopropylmalate dehydrogenase (Q5SIY4 whole entry): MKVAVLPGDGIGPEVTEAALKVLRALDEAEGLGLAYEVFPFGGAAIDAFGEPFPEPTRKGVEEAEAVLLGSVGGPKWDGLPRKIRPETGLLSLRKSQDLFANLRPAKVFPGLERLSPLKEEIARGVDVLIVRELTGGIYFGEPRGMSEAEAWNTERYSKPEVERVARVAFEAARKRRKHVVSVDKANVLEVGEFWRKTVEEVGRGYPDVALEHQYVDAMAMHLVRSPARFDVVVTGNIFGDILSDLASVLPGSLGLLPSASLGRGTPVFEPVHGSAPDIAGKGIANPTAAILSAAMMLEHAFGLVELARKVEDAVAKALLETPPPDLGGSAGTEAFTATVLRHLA

Molecule `CS[C@H](C(=O)O)[C@@H](O)C(=O)O` has a Ki of 0.062 µM.
